Reference: patent US10570184B2, “GLP-1/glucagon receptor co-agonists for medical use” (Novo Nordisk A/S, priority 2014, dated 2020)
Starred links: 1 amine or outer side, 2 acyl side, 3 side chain; linkers in the order of their positions; H or OH if unused. Non-standard residues stand in square brackets, D forms with d. Residues, ends and D or L forms follow the SMILES beside them. Groups on a side chain read outwards from the residue. *: point of attachment. C18 diacid = O=C(O)CCCCCCCCCCCCCCCCC(=O)*; γGlu = O=C(O)[C@H](CCC(=O)[*:2])N[*:1]; Ac4c = NC1(C(=O)O)CCC1; AEEA = NCCOCCOCC(=O)O

Target: T1, human glucagon receptor (Homo sapiens, UniProt P47871)
T1 construct: expressed in transfected cells; host or cells: membranes of BHK cells, clone BHK hGCGR A3*25
T1 sequence (P47871 26-477): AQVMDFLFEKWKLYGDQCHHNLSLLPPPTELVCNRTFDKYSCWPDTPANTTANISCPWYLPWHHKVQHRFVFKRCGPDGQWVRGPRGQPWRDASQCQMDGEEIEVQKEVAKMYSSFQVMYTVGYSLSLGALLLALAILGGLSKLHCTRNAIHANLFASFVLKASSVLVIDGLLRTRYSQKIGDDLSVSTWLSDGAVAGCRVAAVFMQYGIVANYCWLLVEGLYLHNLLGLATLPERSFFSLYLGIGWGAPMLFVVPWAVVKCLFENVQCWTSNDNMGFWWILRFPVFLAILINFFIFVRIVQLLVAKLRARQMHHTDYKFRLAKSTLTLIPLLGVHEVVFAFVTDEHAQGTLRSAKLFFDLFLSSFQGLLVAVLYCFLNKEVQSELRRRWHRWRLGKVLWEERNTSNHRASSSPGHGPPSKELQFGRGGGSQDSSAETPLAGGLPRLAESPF
Test: Assay (II)(b) glucagon receptor binding, 125I-glucagon displacement SPA on BHK membranes
Conditions: without presence of serum albumin; read-out: GlucagonR IC50 (nM) [Assay (II)(b)]
Procedure: The glucagon receptor (glucagonR) binding activity is a measure of affinity of a derivative for the human glucagon receptor. The receptor binding of each compound to the human glucagon receptor was measured in a displacement binding assay. In this type of assay a labelled ligand (in this case 125I-glucagon) is bound to the receptor. Each derivative was added in a series of concentrations to isolated membranes containing the human glucagon receptor and displacement of the labelled ligand is monitored. The receptor binding was reported as the concentration at which half of the labelled ligand is displaced from the receptor, the IC50 value. In order to test the binding of the derivatives to albumin, the assay may be performed in a very low concentration of serum albumin (max. 0.001% final assay concentration) as well as in the presence of a higher concentration of serum albumin (0.2% final assay concentration). An increase of the IC50 value, in the presence of serum albumin indicates an affinity to serum albumin and represents a method to predict a protracted pharmacokinetic profile of the test substance in animal models. […] The protein concentration was determined. […]

IC50	Compound
2.7 nM	CC[C@H](C)[C@H](NC(=O)[C@H](CC(C)C)NC(=O)[C@H](Cc1c[nH]c2ccccc12)NC(=O)[C@H](CCC(N)=O)NC(=O)[C@@H](NC(=O)[C@H](Cc1ccccc1)NC(=O)[C@H](CCC(=O)O)NC(=O)[C@H](CCCNC(=N)N)NC(=O)[C@H](C)NC(=O)[C@H](CCCNC(=N)N)NC(=O)[C@H](CCCNC(=N)N)NC(=O)[C@H](CO)NC(=O)[C@H](CCC(=O)O)NC(=O)[C@H](CC(C)C)NC(=O)[C@H](Cc1ccc(O)cc1)NC(=O)[C@H](CCCCN)NC(=O)[C@H](CO)NC(=O)[C@H](CC(C)C)NC(=O)[C@H](CC(=O)O)NC(=O)[C@H](CO)NC(=O)[C@@H](NC(=O)[C@H](Cc1ccccc1)NC(=O)[C@@H](NC(=O)CNC(=O)[C@H](CCC(N)=O)NC(=O)C1(NC(=O)[C@@H](N)Cc2c[nH]cn2)CCC1)[C@@H](C)O)[C@@H](C)O)C(C)C)C(=O)N[C@@H](CCCCNC(=O)CNC(=O)[C@H](CO)NC(=O)[C@H](CCC(=O)O)NC(=O)CNC(=O)[C@H](CO)NC(=O)CC[C@H](NC(=O)CC[C@H](NC(=O)CCCCCCCCCCCCCCCCC(=O)O)C(=O)O)C(=O)O)C(=O)N[C@H](C(N)=O)[C@@H](C)O [Chem. 16, N^ε28-[2-[[(2S)-2-[[(2S)-4-carboxy-2-[[2-[[(2S)-2-[[(4S)-4-carboxy-4-[[(4S)-4-carboxy-4-(17-carboxyheptadecanoylamino)butanoyl]amino]butanoyl]amino]-3-hydroxypropanoyl]amino]acetyl]amino]butanoyl]amino]-3-hydroxypropanoyl]amino]acetyl]-[Acb2,Leu10,Glu15,Arg20,Glu21,Ile27,Lys28]-Glucagon amide] (HELM PEPTIDE1{H.[O=C(C1(N[*:1])CCC1)[*:2]].Q.G.T.F.T.S.D.L.S.K.Y.L.E.S.R.R.A.R.E.F.V.Q.W.L.I.K.T.[am]}|PEPTIDE2{[O=C(O)CCCCCCCCCCCCCCCCC(=O)[*:2]].[gGlu].[gGlu].S.G.E.S.G}$PEPTIDE1,PEPTIDE2,28:R3-8:R2$$$V2.0)
2.7 nM	CC[C@H](C)[C@H](NC(=O)[C@H](CC(C)C)NC(=O)[C@H](Cc1c[nH]c2ccccc12)NC(=O)[C@H](CCC(N)=O)NC(=O)[C@@H](NC(=O)[C@H](Cc1ccccc1)NC(=O)[C@H](CCC(=O)O)NC(=O)[C@H](CCC(N)=O)NC(=O)[C@H](C)NC(=O)[C@H](CCCNC(=N)N)NC(=O)[C@H](CCCNC(=N)N)NC(=O)[C@H](CO)NC(=O)[C@H](CCC(=O)O)NC(=O)[C@H](CC(C)C)NC(=O)[C@H](Cc1ccc(O)cc1)NC(=O)[C@H](CCCCN)NC(=O)[C@H](CO)NC(=O)[C@H](CC(C)C)NC(=O)[C@H](CC(=O)O)NC(=O)[C@H](CO)NC(=O)[C@@H](NC(=O)[C@H](Cc1ccccc1)NC(=O)[C@@H](NC(=O)CNC(=O)[C@H](CCC(N)=O)NC(=O)C1(NC(=O)[C@@H](N)Cc2c[nH]cn2)CCC1)[C@@H](C)O)[C@@H](C)O)C(C)C)C(=O)N[C@@H](CCCCNC(=O)CC[C@H](NC(=O)COCCOCCNC(=O)COCCOCCNC(=O)CC[C@H](NC(=O)CC[C@H](NC(=O)CCCCCCCCCCCCCCCCC(=O)O)C(=O)O)C(=O)O)C(=O)O)C(=O)N[C@H](C(N)=O)[C@@H](C)O [Chem. 38, N^ε28-[(4S)-4-carboxy-4-[[2-[2-[2-[[2-[2-[2-[[(4S)-4-carboxy-4-[[(4S)-4-carboxy-4-(17-carboxyheptadecanoylamino)butanoyl]amino]butanoyl]amino]ethoxy]ethoxy]acetyl]amino]ethoxy]ethoxy]acetyl]amino]butanoyl]-[Acb2,Leu10,Glu15,Glu21,Ile27,Lys28]-Glucagon amide] (H-H[Ac4c]QGTFTSDLSKYLESRRAQEFVQWLIK([γGlu-AEEA-AEEA-γGlu-γGlu-C18 diacid])T-NH2; N-terminus assumed)
